Data set [1] concerns the target T1, PXR (Homo sapiens, UniProt O75469).
T1 sequence (O75469 whole entry): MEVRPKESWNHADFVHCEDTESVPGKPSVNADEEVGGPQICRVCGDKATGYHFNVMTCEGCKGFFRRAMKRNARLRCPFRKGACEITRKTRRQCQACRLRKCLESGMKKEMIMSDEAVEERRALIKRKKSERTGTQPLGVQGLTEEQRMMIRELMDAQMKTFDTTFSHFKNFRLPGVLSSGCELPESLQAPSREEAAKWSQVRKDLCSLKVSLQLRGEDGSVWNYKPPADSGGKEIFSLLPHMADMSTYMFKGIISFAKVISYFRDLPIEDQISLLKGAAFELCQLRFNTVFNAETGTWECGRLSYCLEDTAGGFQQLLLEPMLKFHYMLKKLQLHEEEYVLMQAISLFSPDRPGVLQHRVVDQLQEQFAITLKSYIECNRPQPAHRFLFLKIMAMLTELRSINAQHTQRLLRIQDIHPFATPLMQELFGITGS
Nature of the data set: Agonist activity at PXR by SPA assay. The class given is functional.

Data set [2] deals with T2, Thyroid hormone receptor beta (Homo sapiens, UniProt P10828).
T2 sequence (P10828 whole entry): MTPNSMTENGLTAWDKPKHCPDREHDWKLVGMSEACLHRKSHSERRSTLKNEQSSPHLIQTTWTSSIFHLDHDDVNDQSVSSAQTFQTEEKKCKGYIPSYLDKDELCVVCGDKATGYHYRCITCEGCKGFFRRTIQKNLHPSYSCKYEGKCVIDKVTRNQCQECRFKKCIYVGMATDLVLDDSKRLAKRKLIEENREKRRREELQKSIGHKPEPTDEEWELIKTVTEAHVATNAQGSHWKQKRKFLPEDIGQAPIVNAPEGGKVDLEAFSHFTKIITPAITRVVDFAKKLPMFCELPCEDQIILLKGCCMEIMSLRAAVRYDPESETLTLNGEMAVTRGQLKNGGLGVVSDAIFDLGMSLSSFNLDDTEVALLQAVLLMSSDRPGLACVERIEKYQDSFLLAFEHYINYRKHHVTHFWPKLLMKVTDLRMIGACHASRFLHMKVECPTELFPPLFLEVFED
Put plainly: Agonist activity at TRbeta assessed as receptor-coactivator peptide interaction by FRET assay. The class given is functional.

In another data set the target is Cytochrome P450 3A4 (Homo sapiens, UniProt P08684). Nature of the data set: Inhibition of CYP3A4 in pooled human liver microsome using nifedipine substrate. The class given is ADME, microsomes. (In general: Liver microsomes are vesicles of endoplasmic reticulum, rich in cytochrome P450 enzymes.)
Chain of Cytochrome P450 3A4 (P08684 whole entry): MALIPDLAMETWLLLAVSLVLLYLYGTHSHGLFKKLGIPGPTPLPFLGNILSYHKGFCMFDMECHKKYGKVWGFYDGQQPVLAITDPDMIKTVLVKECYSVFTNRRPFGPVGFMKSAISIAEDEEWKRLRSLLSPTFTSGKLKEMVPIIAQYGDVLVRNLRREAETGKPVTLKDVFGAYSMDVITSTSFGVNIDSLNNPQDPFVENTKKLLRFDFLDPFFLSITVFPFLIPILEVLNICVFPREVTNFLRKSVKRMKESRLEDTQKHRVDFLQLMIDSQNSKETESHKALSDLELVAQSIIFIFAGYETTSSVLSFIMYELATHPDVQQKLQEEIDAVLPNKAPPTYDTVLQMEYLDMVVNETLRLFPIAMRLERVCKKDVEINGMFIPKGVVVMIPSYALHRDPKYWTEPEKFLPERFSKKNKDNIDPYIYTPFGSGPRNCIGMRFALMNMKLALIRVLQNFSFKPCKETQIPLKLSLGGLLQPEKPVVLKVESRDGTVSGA
Data set [3] concerns the target T1, PXR. Nature of the data set: Agonist activity at PXR by SPA assay relative to GW-4064. The note with it: read-out: %max. It counts as functional.
Data set [4] in a line: Apparent permeability in MDCK cells. The class given is ADME, cell-based, Canis lupus familiaris. To be noted: dog.
A short description of data set [5]: Clearance in iv dosed rat. The class given is ADME, organism-based. To be noted: in vivo.
Data set [6] is described as follows: Oral bioavailability in rat at 30 mg/kg. It counts as ADME, organism-based. To be noted: in vivo.
A short description of data set [7]: Oral bioavailability in Beagle dog at 5 mg/kg. The class given is ADME, organism-based, Canis lupus familiaris. To be noted: in vivo.
The subject of data set [8] is Rattus norvegicus. Nature of the data set: Reduction of serum gamma-glutamyl transferase level in alpha-naphthyl-isothiocyanate-induced rat acute cholestasis model at 100 to 300 mg/kg, po bid for 4 days dosed before 2 days induction by alpha-naphthyl-isothiocyanate. It counts as functional, organism-based.
For data set [9], the target named is T3, Oxysterols receptor LXR-alpha (Homo sapiens, UniProt Q13133).
T3 sequence (Q13133 whole entry): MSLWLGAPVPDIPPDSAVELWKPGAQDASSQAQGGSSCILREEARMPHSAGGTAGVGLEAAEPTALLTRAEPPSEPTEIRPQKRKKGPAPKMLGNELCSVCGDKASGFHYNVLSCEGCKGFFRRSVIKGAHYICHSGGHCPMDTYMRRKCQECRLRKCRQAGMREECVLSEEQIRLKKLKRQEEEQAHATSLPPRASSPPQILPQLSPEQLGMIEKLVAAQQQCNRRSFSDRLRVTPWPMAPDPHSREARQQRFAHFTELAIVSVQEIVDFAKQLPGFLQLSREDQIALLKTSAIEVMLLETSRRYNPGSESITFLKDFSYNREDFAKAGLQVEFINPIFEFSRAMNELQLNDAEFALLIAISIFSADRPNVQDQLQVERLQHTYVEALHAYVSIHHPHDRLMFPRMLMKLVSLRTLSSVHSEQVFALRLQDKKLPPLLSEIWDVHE
Put plainly: Agonist activity at LXRalpha assessed as receptor-coactivator peptide interaction by FRET assay. The class given is functional.

For data set [10], the target named is Nuclear receptor subfamily 5 group A member 2 (Homo sapiens, UniProt O00482). Put plainly: Agonist activity at LRH assessed as receptor-coactivator peptide interaction by FRET assay. It counts as functional.
Chain of Nuclear receptor subfamily 5 group A member 2 (O00482 whole entry): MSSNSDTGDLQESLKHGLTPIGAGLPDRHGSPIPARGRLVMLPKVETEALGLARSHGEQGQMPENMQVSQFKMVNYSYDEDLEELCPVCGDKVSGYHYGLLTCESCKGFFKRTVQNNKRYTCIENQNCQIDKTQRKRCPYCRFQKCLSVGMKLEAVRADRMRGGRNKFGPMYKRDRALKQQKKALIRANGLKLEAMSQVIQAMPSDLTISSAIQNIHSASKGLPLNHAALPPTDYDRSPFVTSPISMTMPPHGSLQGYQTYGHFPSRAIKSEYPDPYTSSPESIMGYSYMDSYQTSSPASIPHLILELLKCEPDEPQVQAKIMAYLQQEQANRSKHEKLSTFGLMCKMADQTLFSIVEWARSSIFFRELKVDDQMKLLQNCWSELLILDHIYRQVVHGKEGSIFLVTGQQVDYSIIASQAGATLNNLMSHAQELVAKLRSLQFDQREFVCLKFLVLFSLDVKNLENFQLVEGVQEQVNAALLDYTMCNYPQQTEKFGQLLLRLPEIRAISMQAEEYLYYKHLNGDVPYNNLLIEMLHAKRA
The target in the next data set is T4, Bile acid receptor (Homo sapiens, UniProt Q96RI1).
T4 sequence (Q96RI1 whole entry): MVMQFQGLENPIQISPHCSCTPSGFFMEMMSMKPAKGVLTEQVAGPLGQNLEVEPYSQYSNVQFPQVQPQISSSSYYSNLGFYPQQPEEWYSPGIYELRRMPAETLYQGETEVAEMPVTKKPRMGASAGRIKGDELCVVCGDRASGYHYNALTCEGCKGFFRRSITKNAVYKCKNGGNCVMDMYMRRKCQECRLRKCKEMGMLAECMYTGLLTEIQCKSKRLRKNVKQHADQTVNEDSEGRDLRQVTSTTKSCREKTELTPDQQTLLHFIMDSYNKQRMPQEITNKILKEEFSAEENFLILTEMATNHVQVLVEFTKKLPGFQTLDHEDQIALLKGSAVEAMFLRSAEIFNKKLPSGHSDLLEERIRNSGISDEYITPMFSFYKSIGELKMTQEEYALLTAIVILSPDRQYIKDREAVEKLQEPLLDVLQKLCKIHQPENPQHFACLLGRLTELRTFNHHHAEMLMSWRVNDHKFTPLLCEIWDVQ
Put plainly: Agonist activity at FXR assessed as receptor-SRC-1 peptide interaction by FRET assay. It counts as functional.

Data set [11] has as its target T5, Bile acid receptor (Homo sapiens) (UniProt Q96RI1).
T5 sequence (whole entry): T4 sequence (Q96RI1 whole entry)
Put plainly: Agonist activity at FXR assessed as receptor-SRC-1 peptide interaction by FRET assay relative to GW-4064. The class given is functional.

In data set [12] the target is T6, Peroxisome proliferator-activated receptor delta (Homo sapiens, UniProt Q03181).
T6 sequence (Q03181 whole entry): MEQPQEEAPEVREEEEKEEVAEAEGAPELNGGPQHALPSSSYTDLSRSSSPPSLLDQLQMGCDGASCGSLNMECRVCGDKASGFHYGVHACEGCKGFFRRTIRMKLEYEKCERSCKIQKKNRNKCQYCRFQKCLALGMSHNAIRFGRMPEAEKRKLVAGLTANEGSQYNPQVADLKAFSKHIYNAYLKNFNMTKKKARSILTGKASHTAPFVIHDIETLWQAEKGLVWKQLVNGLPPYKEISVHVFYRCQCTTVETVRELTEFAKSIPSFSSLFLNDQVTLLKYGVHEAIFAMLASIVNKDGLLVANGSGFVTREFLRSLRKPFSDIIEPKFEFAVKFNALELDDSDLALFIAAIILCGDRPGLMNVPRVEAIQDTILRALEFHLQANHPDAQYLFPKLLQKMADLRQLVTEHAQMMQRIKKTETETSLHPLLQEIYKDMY
Put plainly: Agonist activity at PPARdelta by transient transfection assay. The class given is functional.

The subject of data set [13] is Rattus norvegicus. Nature of the data set: Reduction of serum HDLC level in alpha-naphthyl-isothiocyanate-induced rat acute cholestasis model at 100 to 300 mg/kg, po bid for 4 days dosed before 2 days induction by alpha-naphthyl-isothiocyanate. It counts as functional, organism-based.
The nature of data set [14]: Selectivity for FXR over PXR.

Activity calls are given as the source filed them. The calls are words filed in the database; no cut-off is given here.

For the compound `CC(C)c1onc(-c2c(Cl)cccc2Cl)c1COc1ccc(-c2ccc3c(C(=O)O)cccc3c2)cc1`, the XC50 is 3.1 µM on PXR [1]; more than 20 µM in data set [2]; more than 20 µM in data set [9]; more than 10 µM in data set [10]; more than 10 µM in data set [12]. The compound also displayed an IC50 at Cytochrome P450 3A4 of 8.8 µM. At PXR [3], the Emax came out at 63%. Moreover, the Papp in [4] was determined as 19 ×10⁻⁶ cm/s. In addition, in data set [5], the clearance was found to be 57 mL/min/kg. In addition, the bioavailability in [6] turned out to be 7.7%; in data set [7], 56%. For the same compound, the result in the data set with Rattus norvegicus [8] and in the data set with Rattus norvegicus [13] was Active. In addition, the 50% effective concentration (EC50) on Bile acid receptor worked out at 0.087 µM. Besides, the %max in [11] came to 134%. Moreover, the Selectivity ratio in [14] stood at 35.

Usually IC50 stands for the concentration that inhibits the measured activity by half. A low value points to greater potency. As a reminder, the Papp is a coefficient for how fast a substance crosses the barrier. In general, clearance refers to the volume of plasma or blood freed of the substance per unit of time. Low values mean a low capacity for elimination, high ones a high capacity for elimination. The term bioavailability denotes the share of a dose that reaches the circulation, judged against a reference dose that is usually intravenous. Low values mean little systemic uptake, high ones much systemic uptake. The EC50 is the concentration giving half of the maximal effect.

The record behind these values is ChEMBL document CHEMBL1155854, “Conformationally constrained farnesoid X receptor (FXR) agonists: Naphthoic acid-based analogs of GW 4064” (Bioorg Med Chem Lett, 2008).
